Values of other authors, collected in US8147876B2, “Medical agent for preventing or treating diseases resulting from one of inflammation and remodeling, and method for preventing or treating the diseases” (National University Corporation Tokyo Medical and Dental …, priority 2007, dated 2012).

System: VCAM-1
Conditions: human tracheal smooth muscle cells, J Cell Physiol. 2006

SMILES: COc1cc(/C=C/C(=O)CC(=O)/C=C/c2ccc(O)c(OC)c2)ccc1O [Curcumin]
- TNFα-induced VCAM-1 expression: inhibit
